ChEMBL document CHEMBL1212870, “Concise synthesis of 5,6-dihydrovaltrate leading to enhanced Rev-export inhibitory congener” (Bioorg Med Chem, 2010)

Test: Inhibition of hemagglutininin-tagged HIV1 Rev protein nuclear export in human HeLa cells assessed as localization by indirect fluorescent antibody technique
Type: cell-based, Human immunodeficiency virus 1

SMILES	IC50
CC(=O)OCC1=CO[C@@H](OC(=O)CC(C)C)[C@H]2[C@@H]1C[C@H](OC(C)=O)[C@]21CO1	2.6 µM
CC(=O)OCC1=CO[C@@H](OC(=O)CC(C)C)[C@H]2C1=C[C@H](OC(=O)CC(C)C)[C@]21CO1 [VALTRATE]	2.5 µM

Next, values leading:

IC50	SMILES
4.4 µM	CC(=O)OCC1=CO[C@@H](OC(=O)CC(C)C)[C@H]2[C@@H]1C[C@H](OC(=O)CC(C)C)[C@]21CO1
3.3 µM	CCCCOCC1=CO[C@@H](OC(=O)CC(C)C)[C@H]2[C@@H]1C[C@H](OC(=O)CC(C)C)[C@]21CO1
1 µM	CC(=O)OCC1=CO[C@@H](OC(C)=O)[C@H]2[C@@H]1C[C@H](OC(=O)CC(C)C)[C@]21CO1
